Laboratory results: publication PMC9821108, “Biochemical and Structural Analyses Shed Light on the Mechanisms of RadD DNA Binding and Its ATPase from Escherichia coli” (International Journal of Molecular Sciences, 2023)

What was measured:
RadD [1] = biological target: T1, RadD (Escherichia coli, UniProt P33919); assay: X-ray crystal structure, […] Å; assay type: binding; conditions: co-crystallised with 5 mM ATP and 5 mM MgCl2, ATP hydrolysed to ADP in the crystal; site between RD1 and RD2
T1 construct: recombinant RadD from RadD-pET-28a / RadD-pGEX-6p-1 plasmids expressed in E. coli; full-length with RD1, RD2, ZFD, CTD
T1 sequence (P33919 1-586): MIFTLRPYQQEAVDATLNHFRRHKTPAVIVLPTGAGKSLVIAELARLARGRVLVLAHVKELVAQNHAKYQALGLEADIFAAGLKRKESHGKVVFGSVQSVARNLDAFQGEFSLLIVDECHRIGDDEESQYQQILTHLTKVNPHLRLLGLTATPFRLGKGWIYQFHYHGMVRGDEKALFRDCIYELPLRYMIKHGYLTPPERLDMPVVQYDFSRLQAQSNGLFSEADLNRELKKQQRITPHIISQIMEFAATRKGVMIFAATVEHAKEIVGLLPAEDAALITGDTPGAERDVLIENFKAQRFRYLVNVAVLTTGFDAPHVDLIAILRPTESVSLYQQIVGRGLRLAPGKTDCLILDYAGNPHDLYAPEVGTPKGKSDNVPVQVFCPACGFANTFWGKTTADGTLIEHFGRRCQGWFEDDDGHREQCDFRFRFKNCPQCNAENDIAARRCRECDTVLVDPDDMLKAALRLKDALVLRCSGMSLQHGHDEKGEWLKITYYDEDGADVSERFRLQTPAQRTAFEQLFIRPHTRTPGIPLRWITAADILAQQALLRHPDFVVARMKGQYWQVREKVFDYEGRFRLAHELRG

RadD [2] = biological target: T1, RadD; assay: X-ray crystal structure, […] Å; assay type: binding; conditions: co-crystallised with 5 mM ATPγS, no Mg added; site between RD1 and RD2
RadD [3] = biological target: T2, RadD (Escherichia coli, UniProt P33919, R343A); assay: malachite green phosphate release ATPase assay; assay type: biochemical; conditions: 0.375 μM enzyme, 1 mM ATP; buffer as above
T2 construct: recombinant RadD from RadD-pET-28a / RadD-pGEX-6p-1 plasmids expressed in E. coli; full-length with RD1, RD2, ZFD, CTD
T2 sequence (P33919 whole entry R343A): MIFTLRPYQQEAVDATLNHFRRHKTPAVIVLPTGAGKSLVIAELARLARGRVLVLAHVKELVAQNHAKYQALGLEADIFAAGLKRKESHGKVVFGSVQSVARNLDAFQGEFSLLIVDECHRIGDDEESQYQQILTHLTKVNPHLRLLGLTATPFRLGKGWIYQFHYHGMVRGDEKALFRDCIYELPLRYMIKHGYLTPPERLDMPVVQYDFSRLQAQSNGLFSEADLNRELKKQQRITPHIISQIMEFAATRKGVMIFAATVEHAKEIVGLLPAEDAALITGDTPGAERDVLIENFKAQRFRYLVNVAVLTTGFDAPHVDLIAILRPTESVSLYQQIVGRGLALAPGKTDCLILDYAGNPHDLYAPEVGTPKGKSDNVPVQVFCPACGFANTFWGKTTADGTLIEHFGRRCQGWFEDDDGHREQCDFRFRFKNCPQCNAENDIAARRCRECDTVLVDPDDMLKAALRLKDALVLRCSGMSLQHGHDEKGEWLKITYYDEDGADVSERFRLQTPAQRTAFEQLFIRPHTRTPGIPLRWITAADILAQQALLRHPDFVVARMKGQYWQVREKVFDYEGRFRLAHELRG

RadD [4] = biological target: T3, RadD (Escherichia coli, UniProt P33919, G36E); assay: malachite green phosphate release ATPase assay; assay type: biochemical; conditions: 0.375 μM enzyme, 1 mM ATP; buffer as above
T3 construct: recombinant RadD from RadD-pET-28a / RadD-pGEX-6p-1 plasmids expressed in E. coli; full-length with RD1, RD2, ZFD, CTD
T3 sequence (P33919 whole entry G36E): as the sequence (P33919 whole entry R343A) above, with G36E, A343R counted along it

RadD [5] = biological target: T4, RadD (Escherichia coli, UniProt P33919, G34E); assay: malachite green phosphate release ATPase assay; assay type: biochemical; conditions: 0.375 μM enzyme, 1 mM ATP; buffer as above
T4 construct: recombinant RadD from RadD-pET-28a / RadD-pGEX-6p-1 plasmids expressed in E. coli; full-length with RD1, RD2, ZFD, CTD
T4 sequence (P33919 whole entry G34E): as the sequence (P33919 whole entry R343A) above, with G34E, A343R counted along it

RadD [6] = biological target: T5, RadD (Escherichia coli, UniProt P33919, D117R); assay: malachite green phosphate release ATPase assay; assay type: biochemical; conditions: 0.375 μM enzyme, 1 mM ATP; buffer as above
T5 construct: recombinant RadD from RadD-pET-28a / RadD-pGEX-6p-1 plasmids expressed in E. coli; full-length with RD1, RD2, ZFD, CTD
T5 sequence (P33919 whole entry D117R): as the sequence (P33919 whole entry R343A) above, with D117R, A343R counted along it

RadD [7] = biological target: T6, RadD (Escherichia coli, UniProt P33919, R6A); assay: malachite green phosphate release ATPase assay; assay type: biochemical; conditions: 0.375 μM enzyme, 1 mM ATP; buffer as above
T6 construct: recombinant RadD from RadD-pET-28a / RadD-pGEX-6p-1 plasmids expressed in E. coli; full-length with RD1, RD2, ZFD, CTD
T6 sequence (P33919 whole entry R6A): as the sequence (P33919 whole entry R343A) above, with R6A, A343R counted along it

RadD [8] = biological target: T7, RadD (Escherichia coli, UniProt P33919, K37A); assay: malachite green phosphate release ATPase assay; assay type: biochemical; conditions: 0.375 μM enzyme, 1 mM ATP; buffer as above
T7 construct: recombinant RadD from RadD-pET-28a / RadD-pGEX-6p-1 plasmids expressed in E. coli; full-length with RD1, RD2, ZFD, CTD
T7 sequence (P33919 whole entry K37A): as the sequence (P33919 whole entry R343A) above, with K37A, A343R counted along it

RadD [9] = biological target: T8, RadD (Escherichia coli, UniProt P33919, K68A); assay: malachite green phosphate release ATPase assay; assay type: biochemical; conditions: 0.375 μM enzyme, 1 mM ATP; buffer as above
T8 construct: recombinant RadD from RadD-pET-28a / RadD-pGEX-6p-1 plasmids expressed in E. coli; full-length with RD1, RD2, ZFD, CTD
T8 sequence (P33919 whole entry K68A): as the sequence (P33919 whole entry R343A) above, with K68A, A343R counted along it

[10] = biological target: RadD CTD (Escherichia coli) (UniProt P33919); assay: EMSA; conditions: 20 mM Bis-Tris pH 6.5, 50 mM NaCl, 15% glycerol, 10 mM beta-mercaptoethanol, 37 C 30 min, 33 nM HJ, 0-20 uM RadD; 8% native PAGE in 0.5x TBE; text says …
[11] = biological target: RadD ZFD (Escherichia coli) (UniProt P33919); assay: EMSA; conditions: 20 mM Bis-Tris pH 6.5, 50 mM NaCl, 15% glycerol, 10 mM beta-mercaptoethanol, 37 C 30 min, 33 nM HJ, 0-20 uM RadD; 8% native PAGE in 0.5x TBE; text says …
[12] = substrate: Nc1ncnc2c1ncn2[C@@H]1O[C@H](COP(=O)(O)OP(=O)(O)OP(=O)(O)O)[C@@H](O)[C@H]1O; assay: malachite green phosphate release ATPase assay; assay type: biochemical, Escherichia coli; conditions: 0.4 μM RadD, 20 mM Hepes pH 7.5, 150 mM NaCl, 3 mM MgCl2, 20 °C, 30 min, no DNA or SSB

Nc1ncnc2c1ncn2[C@@H]1O[C@H](COP(=O)(O)OP(=O)(O)O)[C@@H](O)[C@H]1O [ADP]
X-ray crystal structure, 2.7 Å (RadD [1]): RadD/ADP PDB: 8H5Y

Nc1ncnc2c1ncn2[C@@H]1O[C@H](COP(=O)(O)OP(=O)(O)OP(O)(O)=S)[C@@H](O)[C@H]1O [ATPγS]
X-ray crystal structure, 3.0 Å (RadD [2]): RadD/ATPγS PDB: 8H5Z

Nc1ncnc2c1ncn2[C@@H]1O[C@H](COP(=O)(O)OP(=O)(O)OP(=O)(O)O)[C@@H](O)[C@H]1O [ATP]
ATPase activity (RadD [3]): mutant G34E, G36E, K37A, D117R, and R343A lost their ATPase activity | ATPase activity (RadD [4]): mutant G34E, G36E, K37A, D117R, and R343A lost their ATPase activity | ATPase activity (RadD [5]): mutant G34E, G36E, K37A, D117R, and R343A lost their ATPase activity | ATPase activity (RadD [6]): mutant G34E, G36E, K37A, D117R, and R343A lost their ATPase activity | ATPase activity (RadD [7]): mutants R6A and N9A were not significantly different from the wild-type | ATPase activity (RadD [8]): mutant G34E, G36E, K37A, D117R, and R343A lost their ATPase activity | ATPase activity (RadD [9]): The ATPase activity of mutant K68A is three times that of the wild-type

CCGCTACCAGTGATCACCAATGGATTGCTAGGACATCTTTGCCCACCTGCAGGTTCACCC / TGGGTGAACCTGCAGGTGGGCAAAGATGTCCTAGCAATCCATTGTCTATGACGTCAAGCTC / GAGCTTGACGTCATAGACAATGGATTGCTAGGACATCTTTGCCGTCTTGTCAATATCGGC / TGCCGATATTGACAAGACGGCAAAGATGTCCTAGCAATCCATTGGTGATCACTGGTAGCGG [Holliday junction (HJ)]
binding signal [10]: 47 % of WT | binding signal [11]: 43 % of WT

B1: RadD (Escherichia coli K-12) (protein)
chain: T1 sequence (P33919 1-586)
notes: recombinant RadD from RadD-pET-28a / RadD-pGEX-6p-1 plasmids expressed in E. coli; full-length with RD1, RD2, ZFD, CTD
Km [12]: 3.48 mM
